Measured values published in ChEMBL document CHEMBL5550106, “Recent advances in the exploration of oxazolidinone scaffolds from compound development to antibacterial agents and other bioactivities” (Eur J Med Chem, 2024).
Values after ≈ are worked out from the molar mass of the structure shown.

Assays:
Assay type in all cases: functional
[1] = tested on: Staphylococcus aureus; assay: Antibacterial activity against methicillin-sensitive Staphylococcus aureus assessed as reduction in microbial growth by CLSI based broth microdilution method
[2] = tested on: Mycobacterium tuberculosis; assay: Antibacterial activity against Mycobacterium tuberculosis H37Rv assessed as inhibition of bacterial growth
[3] = tested on: Staphylococcus aureus; assay: Antibacterial activity against Staphylococcus aureus assessed as reduction in microbial growth by CLSI based broth microdilution method
[4] = tested on: Staphylococcus epidermidis; assay: Antibacterial activity against Methicillin-resistant Staphylococcus epidermidis assessed as bacterial growth inhibition
[5] = tested on: Staphylococcus epidermidis; assay: Antibacterial activity against linezolid-resistant Staphylococcus epidermidis assessed as reduction in bacterial growth
[6] = tested on: Staphylococcus aureus; assay: Antibacterial activity against Linezolid-resistant Staphylococcus aureus assessed as reduction in bacterial growth
[7] = tested on: Staphylococcus epidermidis; assay: Antibacterial activity against Staphylococcus epidermidis assessed as reduction in microbial growth after 24 hrs by CLSI based microdilution method
[8] = tested on: Staphylococcus aureus; assay: Antibacterial activity against methicillin-resistant Staphylococcus aureus assessed as reduction in microbial growth by CLSI based broth microdilution method
[9] = tested on: Staphylococcus aureus; assay: Antibacterial activity against Staphylococcus aureus HG001 assessed as reduction in bacterial cell growth incubated for 16 to 18 hrs by two-fold serial dilution method; details: time 16-18 hrs
[10] = tested on: Pseudomonas aeruginosa; assay: Antibacterial activity against Pseudomonas aeruginosa PAO1 assessed as bacterial growth inhibition incubated for 24 hrs by microtiter plate reader analysis
[11] = tested on: Pseudomonas aeruginosa; assay: Antibacterial activity against wild-type Pseudomonas aeruginosa PAO1 incubated for 24 hrs by broth microdilution method
[12] = tested on: Haemophilus influenzae; assay: Antibacterial activity against Haemophilus influenzae assessed as bacterial growth inhibition measured after 16 to 24 hrs by broth microdilution assay; details: time 16-24 hrs
[13] = tested on: Mycobacterium tuberculosis; assay: Antitubercular activity against XDR Mycobacterium tuberculosis X24 assessed as bacterial growth inhibition measured for 9 days; details: X24, 216 h, time 9 day
[14] = tested on: Enterococcus faecalis; assay: Antibacterial activity against vancomycin-resistant Enterococcus faecalis NR 31912 assessed as inhibition of bacterial growth
[15] = tested on: Staphylococcus aureus; assay: Antibacterial activity against Methicillin-sensitive Staphylococcus aureus ATCC 9144 assessed as reduction in bacterial growth
[16] = tested on: Staphylococcus aureus; assay: Antimicrobial activity against […] Staphylococcus aureus ATCC 25923 assessed as reduction in cell growth by microdilution method
[17] = tested on: Staphylococcus aureus; assay: Antibacterial activity against Methicillin-resistant Staphylococcus aureus assessed as inhibition of bacterial growth
[18] = tested on: Staphylococcus epidermidis; assay: Antibacterial activity against Methicillin-resistant Staphylococcus epidermidis assessed as inhibition of bacterial growth
[19] = tested on: Escherichia coli; assay: Antimicrobial activity against wild type Escherichia coli MG1655 assessed as inhibition of microbial growth
[20] = tested on: Escherichia coli; assay: Antibacterial activity against efflux pump-efficient Escherichia coli MG1655 assessed as bacterial growth inhibition
[21] = tested on: Escherichia coli; assay: Antibacterial activity against Escherichia coli MG1655 in presence of polymyxin B nonapeptide
[22] = tested on: Staphylococcus aureus; assay: Antibacterial activity against Staphylococcus aureus assessed as reduction in bacterial growth incubated for 24 hrs by broth microdilution method
[23] = tested on: Mycobacterium tuberculosis; assay: Antibacterial activity against Mycobacterium tuberculosis H37Rv assessed as bacterial growth inhibition incubated for 8 days by resazurin assay; details: 192 h, time 8 day
[24] = tested on: Haemophilus influenzae; assay: Antibacterial activity against Haemophilus influenzae assessed as bacterial growth inhibition
[25] = tested on: Enterococcus faecium; assay: Antibacterial activity against vancomycin-resistant Enterococcus faecium assessed as reduction in microbial growth CLSI-based double dilution method
[26] = tested on: Staphylococcus aureus; assay: Antibacterial activity against Methicillin-resistant Staphylococcus aureus ATCC 33592 assessed as reduction in bacterial growth
[27] = tested on: Staphylococcus aureus; assay: Antibacterial activity against methicillin-sensitive Staphylococcus aureus assessed as reduction in bacterial growth incubated for 24 hrs by broth microdilution method
[28] = tested on: Mycobacterium tuberculosis; assay: Antimycobacterial activity against Mycobacterium tuberculosis H37Rv assessed as bacterial growth inhibition incubated for 7 days by fluorescence based analysis; details: 168 h, time 7 day
[29] = tested on: Enterococcus faecalis; assay: Antibacterial activity against vancomycin-resistant Enterococcus faecalis incubated for 18 hrs by broth microdilution method
[30] = tested on: Mycobacterium tuberculosis; assay: Antimycobacterial activity against Mycobacterium tuberculosis H37Rv assessed as reduction in bacterial growth measured for 7 days by resazurin dye based assay; details: 168 h, time 7 day
[31] = tested on: Staphylococcus aureus; assay: Antimicrobial activity against Methicillin-sensitive Staphylococcus aureus ATCC 29213 assessed as reduction in bacterial growth
[32] = tested on: Staphylococcus aureus; assay: Antimicrobial activity against […] Staphylococcus aureus ATCC 25923 assessed as reduction in microbial growth
[33] = tested on: Staphylococcus aureus; assay: Antibacterial activity against Methicillin-resistant Staphylococcus aureus assessed as fold reduction in bacterial growth incubated for 14 to 16 hrs by microbroth dilution method; details: time 14-16 hrs

C[C@H](NC(=O)[C@H](NC(=O)OCC1c2ccccc2-c2ccccc21)[C@H](C)OC(C)(C)C)[C@H]1CN(c2ccc(N3CCOCC3)c(F)c2)C(=O)O1
MIC [1]: 6.25 µg/mL

CC(C)(C)C[C@@H](NC(=O)OCC1c2ccccc2-c2ccccc21)C(=O)N[C@@H](Cc1ccccc1)[C@H]1CN(c2ccc(N3CCOCC3)c(F)c2)C(=O)O1
MIC [2]: 1.9 µg/mL (≈ 2.59 µM)

O=C1NC(=O)C2(Cc3cc(-c4ccc(N5C[C@H](CO)OC5=O)cc4F)ccc3C3CCCCC32)C(=O)N1 (stereo partly drawn)
MIC [3]: 4 µg/mL | MIC [4]: < 1 µg/mL | MIC [5]: 32 µg/mL (≈ 63.1 µM) | MIC [6]: 32 µg/mL (≈ 63.1 µM) | MIC [7]: 2 µg/mL | MIC [8]: 2 µg/mL

CC(=O)NCC1CN(c2ccc(N3CCN(C(=O)CCOCCOCn4cc(CNC(=O)C(CCCCNC(=O)c5cccc(O)c5O)NC(=O)c5cccc(O)c5O)nn4)CC3)c(F)c2)C(=O)O1 (stereo not drawn)
MIC [9]: > 64 µM

CC(=O)NCC1CN(c2ccc(N3CCN(C(=O)COn4cc(CNC(=O)C(CNC(=O)C(CNC(=O)CNC(=O)c5cccc(O)c5O)NC(=O)c5cccc(O)c5O)NC(=O)c5cccc(O)c5O)nn4)CC3)c(F)c2)C(=O)O1 (stereo not drawn)
MIC [10]: 16 µM (≈ 18 µg/mL) | MIC [11]: > 64 µM

CC(=O)NCC1CN(c2ccc(N3CCN(C(=O)COn4cc(CNC(=O)C(CCCCNC(=O)c5cccc(O)c5O)NC(=O)c5cccc(O)c5O)nn4)CC3)c(F)c2)C(=O)O1 (stereo not drawn)
MIC [9]: > 64 µM

CC(=O)NC[C@H]1CN(c2ccc(-c3ccc4c(c3)CC3(C(=O)NCNC3=O)C3CCCCC43)c(F)c2)C(=O)O1 (stereo partly drawn)
MIC [3]: 8 µg/mL | MIC [4]: 4 µg/mL (≈ 7.48 µM) | MIC [5]: > 32 µg/mL | MIC [6]: > 32 µg/mL | MIC [7]: 8 µg/mL | MIC [8]: 8 µg/mL

NS(=O)(=O)c1ccc(N2C[C@H](CO)OC2=O)cc1
MIC [12]: 16 µg/mL (≈ 58.8 µM)

CC(C)(C)Oc1ccc(C[C@H](NC(=O)OCC2c3ccccc3-c3ccccc32)C(=O)N[C@@H](Cc2ccccc2)[C@@H]2CN(c3ccc(N4CCOCC4)c(F)c3)C(=O)O2)cc1
MIC [2]: 12.5 µg/mL (≈ 15.1 µM)

O=C1O[C@@H](CO)CN1c1ccc(-c2ccc3c(c2)CC2(C(=O)NCNC2=O)C2CCCCC32)c(F)c1 (stereo partly drawn)
MIC [3]: 4 µg/mL | MIC [4]: < 1 µg/mL | MIC [5]: 32 µg/mL (≈ 64.8 µM) | MIC [6]: 32 µg/mL (≈ 64.8 µM) | MIC [7]: 2 µg/mL | MIC [8]: 2 µg/mL

CC(=O)NCC1CN(c2ccc(N3CCN(C(=O)CCOCCOCn4cc(CNC(=O)C(CNC(=O)C(CNC(=O)CNC(=O)c5cccc(O)c5O)NC(=O)c5cccc(O)c5O)NC(=O)c5cccc(O)c5O)nn4)CC3)c(F)c2)C(=O)O1 (stereo not drawn)
MIC [10]: 64 µM (≈ 76.8 µg/mL) | MIC [11]: > 64 µM

CN1CCN(c2ccc(N3C[C@H](CO)OC3=O)cc2F)C=N1 [DELPAZOLID]
MIC90 [13]: 0.5 µg/mL (≈ 1.62 µM) | MIC90 [14]: 0.5 µg/mL (≈ 1.62 µM) | MIC90 [15]: 1 µg/mL (≈ 3.24 µM) | MIC90 [16]: 1 µg/mL

CC(=O)NC[C@H]1CN(c2ccc(C(C)=O)cc2)C(=O)O1 [DUP-721]
MIC [17]: 4 µg/mL (≈ 14.5 µM) | MIC [18]: 4 µg/mL (≈ 14.5 µM)

CC(=O)NC[C@H]1CN(c2ccc(N3CCOCC3)c(F)c2)C(=O)O1 [LINEZOLID]
MIC [19]: 130 µg/mL | MIC [10]: 4 µM (≈ 1.35 µg/mL) | MIC [4]: 2 µg/mL (≈ 5.93 µM) | MIC [2]: 1.56 µg/mL (≈ 4.62 µM) | MIC [5]: > 32 µg/mL | MIC [20]: 11 µg/mL (≈ 32.6 µM) | MIC [21]: 36 µg/mL | MIC [22]: 3.1 µg/mL (≈ 9.19 µM) | MIC [6]: > 32 µg/mL | MIC [7]: 2 µg/mL

O=C([C@@H](O)CO)N1CC=C(c2c(F)cc(N3C[C@H](COc4ccon4)OC3=O)cc2F)CC1 [POSIZOLID]
MIC90 [23]: 1 µg/mL (≈ 2.15 µM)

CC(=O)NC[C@H]1CN(c2ccc(-c3ccc(CNCc4cnn[nH]4)cc3)c(F)c2)C(=O)O1 [RADEZOLID]
MIC90 [24]: 0.5 µg/mL (≈ 1.14 µM) | MIC90 [25]: 0.5 µg/mL | MIC90 [26]: 0.5 µg/mL (≈ 1.14 µM) | MIC90 [27]: 0.5 µg/mL (≈ 1.14 µM)

CC(=O)NC[C@H]1CN(c2ccc(N3CCSCC3)c(F)c2)C(=O)O1 [SUTEZOLID]
MIC [28]: 0.03 µg/mL (≈ 0.0849 µM)

Cn1nnc(-c2ccc(-c3ccc(N4C[C@H](COP(=O)(O)O)OC4=O)cc3F)cn2)n1 [TEDIZOLID PHOSPHATE]
MIC90 [29]: 0.12 µg/mL | MIC90 [30]: 0.125 µg/mL | MIC90 [31]: 0.12 µg/mL | MIC90 [32]: 0.12 µg/mL

Cn1nnc(-c2ccc(-c3ccc(N4C[C@H](CO)OC4=O)cc3F)cn2)n1 [TEDIZOLID]
MIC90 [29]: 0.5 µg/mL (≈ 1.35 µM) | MIC90 [31]: 0.25 µg/mL (≈ 0.675 µM) | MIC90 [32]: 0.25 µg/mL | fold change (FC) [33]: 4
